Test [1] relates to Cortex. The test is described as follows: Effect on spontaneous [3H]5HT […] in Sprague-Dawley rat brain cortical slices at 0.1 to 30 uM measured after 45 mins of superfusion. The format is functional, tissue-based.
Test [2] has as its system Cortex. Put plainly: Effect on electrically-evoked [3H]5HT […] in Sprague-Dawley rat brain cortical slices administered 15 mins before electrical challenge after 85 mins of superfusion relative to control. The format is functional, tissue-based.
Test [3] has as its system Cortex. Put plainly: Effect on spontaneous [3H]5HT […] in Sprague-Dawley rat brain cortical slices at 0.1 to 100 uM measured after 45 mins of superfusion. The format is functional, tissue-based.
Test [4] concerns Cortex. The test is described as follows: Effect on electrically-evoked [3H]5HT […] in Sprague-Dawley rat brain cortical slices administered 15 mins before electrical challenge at 100 uM after 85 mins of superfusion relative to control. The format is functional, tissue-based.
Test [5] concerns Cortex. Put plainly: Effect on spontaneous [3H]5HT […] in Sprague-Dawley rat brain cortical slices at 1 to 30 uM measured after 45 mins of superfusion. The format is functional, tissue-based.
The subject of test [6] is Cortex. Put plainly: Effect on electrically-evoked [3H]5HT […] in Sprague-Dawley rat brain cortical slices administered 15 mins before electrical challenge at 30 uM after 85 mins of superfusion relative to control. The format is functional.

This is an account of results in ChEMBL document CHEMBL1151694, “Efficient synthesis and biological evaluation of two modafinil analogues” (2008).

Calls of active or inactive are those of the source. The rule behind the calls is not given here.

For `CC(C)NC(=O)CC(=O)C(c1ccccc1)c1ccccc1`, the result in the test with Cortex [1] was inactive. Further, the Activity result in the test with Cortex [2] was “Dose-dependent effect”.

For the compound `NC(=O)CC(=O)C(c1ccccc1)c1ccccc1`, in the test with Cortex [3], the result was inactive. In the test with Cortex [4], the result was Active.

For the compound `NC(=O)C[S+]([O-])C(c1ccccc1)c1ccccc1` (configuration not stated) [MODAFINIL], the outcome with Cortex [5] was inactive. Also, the Activity in the test on Cortex [6] is 217%; with Cortex [2], “Dose-dependent effect”.
